This assay concerns FLAP (5-lipoxygenase activating protein). The experiment in a line: In vitro binding test: displacement of [3H]-7-chloro-3-(5-((3-fluoropyridin-2-yl)methoxy)-2-methylphenyl)-3,4-dihydroquinazolin-2(1H)-one from Sf9 microsome fractions. Further details: species or system human and mouse. The note with it: Sf9 microsome fractions expressing FLAP; 100% = radioligand binding with 10 μM sodium 3-(3-(tert-butylsulfanyl)-1-(4-chlorobenzyl)-5-isopropyl-1H-indol-2-yl)-2,2-dimethylpropanoate, 0% = DMSO; test compound concentration not given. As for the experimental part: As an assay buffer, 100 mM Tris-HCl, pH 7.5, 140 mM NaCl, 2 mM EDTA, 0.5 mM dithiothreitol, 5% glycerol, 0.05% Tween20 was used. Sf9 microsome fractions expressing human and mouse FLAPs were dispensed by 50 μL to a 96-well plate at 2 μg/mL. Furthermore, a test compound (25 μL) diluted 4-fold of the final concentration with the assay buffer was added and mixed therewith, and the mixture was incubated at room temperature for 10 min. Furthermore, 120 nM [^3H]-7-chloro-3-(5-((3-fluoropyridin-2-yl)methoxy)-2-methylphenyl)-3,4-dihydroquinazolin-2(1H)-one was added by 25 μL, and mixed therewith, and the mixture was incubated at room temperature for 60 min. Thereafter, the cells were transferred to a 96-well GF/B Unifilter plate with a FilterMate cell harvester, and washed 3 times with a wash buffer (100 mM Tris-HCl pH 7.5, 0.05% Tween20, 200 μL) cooled to 4° C. The GF/B Unifilter plate was dried at 37° C., Microscint 0 was added and measured by TopCount NXT (PerkinElmer). As for the inhibitory activity, the inhibitory rate was calculated wherein the [^3H]-7-chloro-3-(5-((3-fluoropyridin-2-yl)methoxy)-2-methylphenyl)-3,4-dihydroquinazolin-2(1H)-one binding amount in the presence of 10 μM sodium 3-(3-(tert-butylsulfanyl)-1-(4-chlorobenzyl)-5-isopropyl-1H-indol-2-yl)-2,2-dimethylpropanoate was 100%, and the [^3H]-7-chloro-3-(5-((3-fluoropyridin-2-yl)methoxy)-2-methylphenyl)-3,4-dihydroquinazolin-2(1H)-one binding amount in the presence of DMSO was 0%.
A general note: Loss of bound radioactivity is the signal in a displacement assay; it reports binding, not function.
As for `O=C1Nc2c(ccnc2Cl)CN1c1cc2c(cc1Cl)CCC(c1ncccc1F)O2` (stereo not shown) [Example 54, 8-chloro-3-(6-chloro-2-(3-fluoropyridin-2-yl)-3,4-dihydro-2H-chromen-7-yl)-3,4-dihydropyrido[3,4-d]pyrimidin-2(1H)-one], the “inhibitory rate (%)” value worked out at 115%.
Under `COCCN1C(=O)N(c2cc3c(cc2Cl)CCC(c2ncccc2F)O3)Cc2c1ccnc2Cl` (stereo not shown) [Example 55, 5-chloro-3-(6-chloro-2-(3-fluoropyridin-2-yl)-3,4-dihydro-2H-chromen-7-yl)-1-(2-methoxyethyl)-3,4-dihydropyrido[4,3-d]pyrimidin-2(1H)-one] stands 106%.
Under `CCOC(=O)c1nccc2c1CN(c1cc3c(cc1Cl)CCC(c1ncccc1F)O3)C(=O)N2` (stereo not shown) [Example 56, ethyl 3-(6-chloro-2-(3-fluoropyridin-2-yl)-3,4-dihydro-2H-chromen-7-yl)-2-oxo-1,2,3,4-tetrahydropyrido[4,3-d]pyrimidine-5-carboxylate] stands 110%; under `O=C1Nc2nccc(C(F)(F)F)c2CN1c1cc2c(cc1Cl)CCC(c1ncccc1F)O2` (stereo not shown) [Example 57, 3-(6-chloro-2-(3-fluoropyridin-2-yl)-3,4-dihydro-2H-chromen-7-yl)-5-(trifluoromethyl)-3,4-dihydropyrido[2,3-d]pyrimidin-2(1H)-one], 105%; under `O=C1Nc2ccnc(N3CCOCC3)c2CN1c1cc2c(cc1Cl)CCC(c1ncccc1F)O2` (stereo not shown) [Example 58, 3-(6-chloro-2-(3-fluoropyridin-2-yl)-3,4-dihydro-2H-chromen-7-yl)-5-(morpholin-4-yl)-3,4-dihydropyrido[4,3-d]pyrimidin-2(1H)-one], 117%.
Under `O=C1Nc2cc(N3CCOCC3)nc(C3CC3)c2CN1c1cc2c(cc1Cl)CCC(c1ncccc1F)O2` (stereo not shown) [Example 59, 3-(6-chloro-2-(3-fluoropyridin-2-yl)-3,4-dihydro-2H-chromen-7-yl)-5-cyclopropyl-7-(morpholin-4-yl)-3,4-dihydropyrido[4,3-d]pyrimidin-2(1H)-one] stands 107%.
On to `Cn1nccc1-c1nccc2c1CN(c1cc3c(cc1Cl)CCC(c1ncccc1F)O3)C(=O)N2` (stereo not shown) [Example 60, 3-(6-chloro-2-(3-fluoropyridin-2-yl)-3,4-dihydro-2H-chromen-7-yl)-5-(1-methyl-1H-pyrazol-5-yl)-3,4-dihydropyrido[4,3-d]pyrimidin-2(1H)-one], for which the “inhibitory rate (%)” value turned out to be 113%.
Regarding `O=C1Nc2nccc(OCC(F)(F)F)c2CN1c1cc2c(cc1Cl)CCC(c1ncccc1F)O2` (stereo not shown) [Example 61, 3-(6-chloro-2-(3-fluoropyridin-2-yl)-3,4-dihydro-2H-chromen-7-yl)-5-(2,2,2-trifluoroethoxy)-3,4-dihydropyrido[2,3-d]pyrimidin-2(1H)-one], the “inhibitory rate (%)” value amounted to 91%.
Consider `Cn1cc(-c2nccc3c2CN(c2cc4c(cc2Cl)CCC(c2ncccc2F)O4)C(=O)N3)cn1` (stereo not shown) [Example 62, 3-(6-chloro-2-(3-fluoropyridin-2-yl)-3,4-dihydro-2H-chromen-7-yl)-5-(1-methyl-1H-pyrazol-4-yl)-3,4-dihydropyrido[4,3-d]pyrimidin-2(1H)-one], for which the “inhibitory rate (%)” value is recorded as 100%.
As for `Cc1cc2c(c(C)n1)CN(c1cc3c(cc1Cl)CCC(c1ncccc1F)O3)C(=O)N2` (stereo not shown) [Example 63, 3-(6-chloro-2-(3-fluoropyridin-2-yl)-3,4-dihydro-2H-chromen-7-yl)-5,7-dimethyl-3,4-dihydropyrido[4,3-d]pyrimidin-2(1H)-one], the “inhibitory rate (%)” value was determined as 106%.
The result for `COc1cccnc1C1CCc2cc(Cl)c(N3Cc4c(ccnc4C4CC4)NC3=O)cc2O1` (stereo not shown) [Example 64, 3-(6-chloro-2-(3-methoxypyridin-2-yl)-3,4-dihydro-2H-chromen-7-yl)-5-cyclopropyl-3,4-dihydropyrido[4,3-d]pyrimidin-2(1H)-one] reads 94%; that for `O=C1Nc2c(Cl)cnc(C3CC3)c2CN1c1cc2c(cc1Cl)CCC(c1ncccc1F)O2` (stereo not shown) [Example 65, 8-chloro-3-(6-chloro-2-(3-fluoropyridin-2-yl)-3,4-dihydro-2H-chromen-7-yl)-5-cyclopropyl-3,4-dihydropyrido[4,3-d]pyrimidin-2(1H)-one], 105%; that for `O=C1Nc2c(ccnc2C(F)(F)F)CN1c1cc2c(cc1Cl)CCC(c1ncccc1F)O2` (stereo not shown) [Example 66, 3-(6-chloro-2-(3-fluoropyridin-2-yl)-3,4-dihydro-2H-chromen-7-yl)-8-(trifluoromethyl)-3,4-dihydropyrido[3,4-d]pyrimidin-2(1H)-one], 98%.
Under `Cc1cc2c(cc1N1Cc3c(ccnc3C(C)C)NC1=O)OC(c1ncccc1F)CC2` (stereo not shown) [Example 67, 3-(2-(3-fluoropyridin-2-yl)-6-methyl-3,4-dihydro-2H-chromen-7-yl)-5-isopropyl-3,4-dihydropyrido[4,3-d]pyrimidin-2(1H)-one] stands 104%; under `O=C1Nc2ccnc(C(F)(F)F)c2CN1c1cc2c(cc1F)CCC(c1ncccc1F)O2` (stereo not shown) [Example 68, 3-(6-fluoro-2-(3-fluoropyridin-2-yl)-3,4-dihydro-2H-chromen-7-yl)-5-(trifluoromethyl)-3,4-dihydropyrido[4,3-d]pyrimidin-2(1H)-one], 113%.
Turning to `COC(=O)c1cc2c(c(C3CC3)n1)CN(c1cc3c(cc1Cl)CCC(c1ncccc1F)O3)C(=O)N2` (stereo not shown) [Example 70, methyl 3-(6-chloro-2-(3-fluoropyridin-2-yl)-3,4-dihydro-2H-chromen-7-yl)-5-cyclopropyl-2-oxo-1,2,3,4-tetrahydropyrido[4,3-d]pyrimidine-7-carboxylate], the “inhibitory rate (%)” value is listed as 101%.
The result for `O=C(O)c1cc2c(c(C3CC3)n1)CN(c1cc3c(cc1Cl)CCC(c1ncccc1F)O3)C(=O)N2` (stereo not shown) [Example 71, 3-(6-chloro-2-(3-fluoropyridin-2-yl)-3,4-dihydro-2H-chromen-7-yl)-5-cyclopropyl-2-oxo-1,2,3,4-tetrahydropyrido[4,3-d]pyrimidine-7-carboxylic acid] reads 107%; that for `O=C1Nc2cc(Cl)nc(C3CC3)c2CN1c1cc2c(cc1Cl)CCC(c1ncccc1F)O2` (stereo not shown) [Example 72, 7-chloro-3-(6-chloro-2-(3-fluoropyridin-2-yl)-3,4-dihydro-2H-chromen-7-yl)-5-cyclopropyl-3,4-dihydropyrido[4,3-d]pyrimidin-2(1H)-one], 104%; that for `O=C1Nc2cc(CO)nc(C3CC3)c2CN1c1cc2c(cc1Cl)CCC(c1ncccc1F)O2` (stereo not shown) [Example 73, 3-(6-chloro-2-(3-fluoropyridin-2-yl)-3,4-dihydro-2H-chromen-7-yl)-5-cyclopropyl-7-(hydroxymethyl)-3,4-dihydropyrido[4,3-d]pyrimidin-2(1H)-one], 109%.
The result for `O=C(c1cc2c(c(C3CC3)n1)CN(c1cc3c(cc1Cl)CCC(c1ncccc1F)O3)C(=O)N2)N1CCOCC1` (stereo not shown) [Example 74, 3-(6-chloro-2-(3-fluoropyridin-2-yl)-3,4-dihydro-2H-chromen-7-yl)-5-cyclopropyl-7-(morpholin-4-ylcarbonyl)-3,4-dihydropyrido[4,3-d]pyrimidin-2(1H)-one] reads 104%; that for `CC(C)(O)c1cc2c(c(C3CC3)n1)CN(c1cc3c(cc1Cl)CCC(c1ncccc1F)O3)C(=O)N2` (stereo not shown) [Example 75, 3-(6-chloro-2-(3-fluoropyridin-2-yl)-3,4-dihydro-2H-chromen-7-yl)-5-cyclopropyl-7-(2-hydroxypropan-2-yl)-3,4-dihydropyrido[4,3-d]pyrimidin-2(1H)-one], 103%.
The result for `O=C(NC1CC1)c1cc2c(c(C3CC3)n1)CN(c1cc3c(cc1Cl)CCC(c1ncccc1F)O3)C(=O)N2` (stereo not shown) [Example 76, 3-(6-chloro-2-(3-fluoropyridin-2-yl)-3,4-dihydro-2H-chromen-7-yl)-N,5-dicyclopropyl-2-oxo-1,2,3,4-tetrahydropyrido[4,3-d]pyrimidine-7-carboxamide] reads 105%.
For the compound `O=C1Nc2cncc(C(F)(F)F)c2CN1c1cc2c(cc1Cl)CCC(c1ncccc1F)O2` (stereo not shown) [Example 78, 3-(6-chloro-2-(3-fluoropyridin-2-yl)-3,4-dihydro-2H-chromen-7-yl)-5-(trifluoromethyl)-3,4-dihydropyrido[3,4-d]pyrimidin-2(1H)-one], the “inhibitory rate (%)” value turned out to be 105%.
As for `Cc1nc(C)c2c(c1Cl)CN(c1cc3c(cc1Cl)CCC(c1ncccc1F)O3)C(=O)N2` (stereo not shown) [Example 79, 5-chloro-3-(6-chloro-2-(3-fluoropyridin-2-yl)-3,4-dihydro-2H-chromen-7-yl)-6,8-dimethyl-3,4-dihydropyrido[3,4-d]pyrimidin-2(1H)-one], the “inhibitory rate (%)” value is on record as 98%.
Turning to `COc1ncc(Cl)c2c1NC(=O)N(c1cc3c(cc1Cl)CCC(c1ncccc1F)O3)C2` (stereo not shown) [Example 80, 5-chloro-3-(6-chloro-2-(3-fluoropyridin-2-yl)-3,4-dihydro-2H-chromen-7-yl)-8-methoxy-3,4-dihydropyrido[3,4-d]pyrimidin-2(1H)-one], the “inhibitory rate (%)” value came to 107%.

For the origin of these results see patent publication US20150299188A1, “HETEROCYCLIC COMPOUND” (priority 2012, published 2015).
